Assay results: article PMC11905336, “Pyrrole‐Tethered Bisbenzoxazole Derivatives: Apoptosis‐Inducing Agents Targeting Breast Cancer Cells” (Chemical Biology & Drug Design, 2025)
Like-named read-outs stand apart in the source and are kept apart here.

How the values were obtained:
[1] = test system: A549, A498, HeLa, and HepG2; parameters: method as in Ersan et al. [2020]; details: ref Ersan et al. [2020], cited from earlier work
[2] = test system: Vero healthy cell line; parameters: method as in Ersan et al. [2020]; details: ref Ersan et al. [2020]; cited from earlier work
[3] = test system: MCF‐7 cell lines; assay: MTT assay, cytotoxicity on MCF-7 cells; assay type: cell-based, human; details: for IC50: Homo sapiens, MTT; for IC50 in MCF-7 compared to tamoxifen (fold lower): MCF-7, MTT
Description: The cytotoxic effects of PTB derivatives on MCF‐7 breast cancer cells were evaluated using the MTT assay at various concentrations (100 nM, 1 μM, 10 μM, 50 μM, and 100 μM).
(§1) The human dermal fibroblast (HDFa) and human breast cancer cells (MCF‐7) were obtained from the American Type Culture Collection (ATCC; Manassas, VA, USA). Cells were cultured in RPMI medium (MCF‐7) and DMEM medium (HDFa) was supplemented with 10% FBS, 1% penicillin–streptomycin, 1% amphotericin, and 2.5% L‐glutamine at 37°C in a 5% CO2 incubator.
MTT Method. The MTT method is used to detect and quantify living organisms cultured with the method colorimetrically. This method relies on intact mitochondria cleaving the tetrazolium ring of the MTT dye. The MTT substance is absorbed and reduced to a colorful, water‐insoluble formazan by a mitochondria‐dependent reaction. Cell viability is measured based on the MTT reduction property, and the density of dye obtained from MTT analysis indicates the number of viable cells. In this study, cell viability was assessed using the MTT (0.5 mg/mL) solution that was added to each well. […] After adding properties to cultures, they were kept at 37°C for 24 h and overnight. Then, at 48 and 72 h after applying the molecules, 10 μL of MTT was added to each well and incubated under similar conditions for 4 h. Absorbance spectrophotometry was performed at a wavelength of 570 nm using the IC50 = [(control absorbents‐sample absorbents)/control absorbents] × 100 calculation method (Khorsandi et al. [2017]).

[4] = test system: HDFa cell lines; assay: Cytotoxicity on healthy dermal fibroblasts (MTT / xCELLigence real-time cell analysis); assay type: cell-based; details: Homo sapiens
Description: The cytotoxicity of these derivatives was also assessed in dermal fibroblast cells using xCELLigence analysis as detailed in the Supporting Information.
as §1
xCELLigence Real‐Time Cell Analysis. The xCELLigence system (Real‐Time Cell Analyzer (RTCA) Dual Plate (DP) (Roche Diagnostics GmbH, Penzberg)) was used for real‐time monitoring of cell viability without the need for labeling. A total of 1 × 10^4 HDFa cells were seeded into each well of the E‐plate, and the cell proliferation curve was monitored for 24 h. […] The Cell Index (CI) value was automatically measured every hour for each well using RTCA Software (version 1.2.1) (Yetkin et al. [2021]; Yıldırım et al. [2022]).

[5] = test system: MCF‐7 cells; assay: Apoptosis/necrosis by flow cytometry, Annexin V/propidium iodide, MCF-7; assay type: cell-based, human; details: MCF-7, 48 h, p < 0.05
Description: Flow cytometry analysis was performed to evaluate the percentages of apoptosis for these compounds compared to tamoxifen. MCF‐7 cell suspensions treated with each compound for 48 h were stained using an apoptosis detection kit and subsequently analyzed using flow cytometry.
(§2) The assessment of apoptosis through flow cytometry is a valuable method for obtaining quantitative results to determine the levels of apoptosis and necrosis in cells. In our study, the 48th‐hour apoptosis levels of three synthases with the lowest IC50 values (PTB derivatives B8, B14, and B18) were evaluated. To assess apoptosis levels, MCF‐7 cells and healthy fibroblast cells were incubated with these synthases for 48 h. After this incubation period, the cells were treated with Annexin‐V APC and PE propidium iodide (PI) dyes to examine apoptosis levels. Then, to examine the levels of apoptosis, the cells were incubated at a concentration of 2 × 10^5 cells/mL with 5 μL Annexin‐V APC and 10 μL PI dyes in 100 μL Binding buffer for 15 min at room temperature. Samples were then washed twice in PBS, and the BD FACS ARIA III flow cytometry device was used to determine the percentage of apoptotic cells. (Ayaz et al. [2022]).

[6] = test system: HDFa cells; assay: Apoptosis/necrosis by flow cytometry, Annexin V/propidium iodide, HDFa; assay type: cell-based, human; details: 48 h, same concentrations as in MCF-7, p < 0.05
Description: Subsequently, flow cytometry analysis was conducted on HDFa cells.
as §2

[7] = test system: MCF‐7 cells; assay: Cell cycle phases by flow cytometry with propidium iodide, MCF-7; assay type: cell-based, human; details: for Change of G2 phase averages vs control: MCF-7, 48 h at IC50; for Change of G1 phase vs control / Change of S phase vs control: MCF-7, 48 h at IC50, p < 0.05
Description: In the flow cytometry analysis, cell cycle kits facilitated the removal of cytoskeletal and nuclear proteins by disrupting lipid components of the cell membrane using detergents. […] Consequently, we were able to identify abnormal DNA distributions and cell cycle phase profiles in the MCF‐7 breast cancer cell line.
MCF‐7 cells were seeded in a 6‐well plate at a density of 1 × 10^6 cells and incubated for 24 h. […] MCF‐7 cells were then trypsinized, stained, and analyzed using a BD FACSAria III flow cytometer (BD Biosciences, Bedford, MA, USA) with FACS Diva Software and ModFit LT.
The cell cycle kit (MCE USA‐HY‐K1071‐50 T) works on the principle of dissolving the lipids in the cell membrane with the help of detergents. This kit was used to identify cells with abnormal DNA and cell cycle phase distributions in a breast cancer cell line. It was analyzed by removing the cytoskeleton and nuclear proteins with the help of trypsin and digesting the cellular RNA by enzymes. Cells were seeded at 1 × 10^6 in a 6‐well plate and incubated for 24 h. […] Cells were removed by adding trypsin to adherent cells. They were centrifuged at 1000 g for 3–5 min at 4°C, and then the supernatant was discarded. One milliliter of prechilled PBS was added to resuspend the cells, centrifuged at 1000 g for 3–5 min at 4°C, and detected via BD FACSAria III flow cytometer (BD Biosciences, Bedford, MA, USA). Percentage data were obtained using FACS Diva Software and ModFit LT (Şimşek et al. [2020]).

[8] = test system: A549 and MCF‐7 cell lines; parameters: method as in Belal and Abdelgawad [2017]; details: ref Belal and Abdelgawad [2017]; cited from earlier work
[9] = test system: MCF‐7; parameters: method as in Desai et al. [2020]; details: ref Desai et al. [2020]; cited from earlier work
[10] = test system: MDA‐MB‐231; parameters: method as in Desai et al. [2020]; details: ref Desai et al. [2020]; cited from earlier work
[11] = test system: HeLa and HepG2 cell lines; parameters: method as in Srivastava et al. [2015]; details: ref Srivastava et al. [2015]; cited from earlier work
[12] = test system: MCF‐7 cell line; parameters: method as in earlier work; details: MCF-7, XTT assay, ref Kuzu, Hepokur, Alagoz, et al. [2022], Turkmenoglu; cited from earlier work
[13] = test system: MCF‐7 cells; parameters: method as in earlier work; details: MCF-7, cell cycle analysis, ref Kuzu, Hepokur, Alagoz, et al. [2022], Turkmenoglu; cited from earlier work
[14] = MCF7, read-out: IC50 (μM) for MCF‐7 cell lines, 48 h
[15] = MCF7, 24 h, read-out: IC50 (μM) for MCF‐7 cell lines, 24 h
[16] = MCF7, 72 h, read-out: IC50 (μM) for MCF‐7 cell lines, 72 h
[17] = 24 h, values greater than 100 not calculated, read-out: IC50 (μM) for HDFa cell lines, 24 h
[18] = 72 h, values greater than 100 not calculated, read-out: IC50 (μM) for HDFa cell lines, 72 h
[19] = read-out: IC50 (μM) for HDFa cell lines, 48 h, values greater than 100 not calculated

In the case of `c1ccc2oc(CNCc3nc4ccccc4o3)nc2c1` [Compound 16], the IC50 ([1]; range across A549, A498, HeLa, HepG2) is given as 0.56 to 2.24 µM, the “Selectivity for A549 lung cancer cell line compared to other tested cancer cell lines” value [1] is given as “fourfold higher selectivity” and the “Cytotoxicity against Vero healthy cell line” value [2] is given as “minimal cytotoxicity”.
In the case of `COC(=O)c1ccc2nc(-c3ccc(-c4nc5cc(OC)ccc5o4)[nH]3)oc2c1` [Compound B18, Methyl 2‐(5‐(5‐Methoxybenzo[d]Oxazol‐2‐Yl)‐1H‐Pyrrol‐2‐Yl)benzo[d]Oxazole‐6‐Carboxylate], the IC50 [3, 14] is reported as 1.3 ± 0.98 µM, the IC50 [3, 15] is reported as 3.53 ± 1.35 µM and the IC50 [3, 16] is reported as 2.69 ± 0.73 µM. For the same compound, the “IC50 in MCF-7 compared to tamoxifen (fold lower)” value [3] was “approximately 8 fold”, the IC50 [4, 17] was 98.3 ± 1.58 µM and the IC50 [4, 18] was ≥ 100 µM. The IC50 [4, 19] was ≥ 100 µM, the “Secondary apoptosis vs control” value [5] was “significantly elevated” and the “Average number of viable cells vs control” value [6] was “significant decrease”. The “Percentage of necrosis vs control” value [6] was “notable increase”, the “Change of G2 phase averages vs control” value [7] was “No significant changes” and the “Change of G1 phase vs control” value [7] was “significant increase”. For the same compound, the “Change of S phase vs control” value [7] was “corresponding decrease”.
For `c1ccc(-c2cc(-c3nc4ccccc4o3)[nH]n2)cc1` [Compound 11], the IC50 [8] is given as 0.12 to 0.19 µM.
For `c1ccc2nc(-c3nc4ccccc4o3)cnc2c1` [Compound 12], the IC50 [9] is given as 0.53 µM and the IC50 [10] is given as 0.5 µM.
With `COC(=O)c1ccc2nc(-c3ccc(-c4nc5cc(C)ccc5o4)[nH]3)oc2c1` [Compound B14, Methyl 2‐(5‐(5‐Methylbenzo[d]Oxazol‐2‐Yl)‐1H‐Pyrrol‐2‐Yl)benzo[d]Oxazole‐6‐Carboxylate] the IC50 [3, 14] was 0.95 ± 1.01 µM, the IC50 [3, 15] was 3.28 ± 0.74 µM and the IC50 [3, 16] was 3.02 ± 2.18 µM. For the same compound, the “IC50 in MCF-7 compared to tamoxifen (fold lower)” value [3] was “approximately 8 fold”, the IC50 [4, 17] was 94.5 ± 1.37 µM and the IC50 [4, 18] was 97.4 ± 2.83 µM. For the same compound, the IC50 [4, 19] was 96.3 ± 1.38 µM, the “Necrosis percentage vs control” value [5] was “significant changes in all groups except for the B14 group” and the “Change of G2 phase averages vs control” value [7] was “No significant changes”. For the same compound, the “Change of G1 phase vs control” value [7] was “significant increase” and the “Change of S phase vs control” value [7] was “corresponding decrease”.
For `c1ccc(Cn2nnc(-c3ccccc3)c2-c2nc3ccccc3o2)cc1` [Compound 10], the IC50 [11] is listed as 5 to 30 µg/mL.
For `O=c1[nH]cc(F)c(=O)[nH]1` [5‐FU, 5‐fluorouracil], the IC50 [12] is listed as 5.06 µM.
For `CC/C(=C(\c1ccccc1)c1ccc(OCCN(C)C)cc1)c1ccccc1` [Tamoxifen, reference compound], the “Secondary apoptosis vs control” value [5] was “significantly elevated”, the “Average number of viable cells vs control” value [6] was “significant decrease” and the “Percentage of necrosis vs control” value [6] was “notable increase”. For the same compound, the “Change of G2 phase averages vs control” value [7] was “No significant changes”, the “Change of G1 phase vs control” value [7] was “significant increase” and the “Change of S phase vs control” value [7] was “corresponding decrease”.
For `COc1ccc2oc(C(=O)N3CCCCC3)nc2c1` [Compound 14], the G0/G1 phase arrest [13] is listed as 71.2%.
